Laboratory results from patent US20020026053A1, “Novel 3-(substituted) -2- indolinones compounds and use thereof as inhibitors of protein kinase activity” (priority 1997, published 2002).
Several values for one entry are separate records, joined by “and”; a condition that tells them apart may be missing. Identical values can stand only once. Like-named read-outs stand apart in the source and are kept apart here.

Target: T1, Met receptor (EGFR/Met chimeric cells, EMR) (Homo sapiens, UniProt P08581)
T1 construct: expressed in transfected cells; the other entry of the earlier key: EGFR (P00533, Epidermal growth factor receptor)
Test: Met Autophosphorylation Assay
Format: biochemical
Method in brief: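 Transiently transfected EGFR/Met chimeric (EMR) cells were lysed in HNTG with 1 mM PMSF. Met was captured on plates coated with goat anti-rabbit IgG, then rabbit anti-Met (C-28), using 90 μg lysate/100 μl for 60 min at room temperature. Phosphotyrosine was read by ELISA.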

T1 sequence (P08581 with tags, fused parts or gaps): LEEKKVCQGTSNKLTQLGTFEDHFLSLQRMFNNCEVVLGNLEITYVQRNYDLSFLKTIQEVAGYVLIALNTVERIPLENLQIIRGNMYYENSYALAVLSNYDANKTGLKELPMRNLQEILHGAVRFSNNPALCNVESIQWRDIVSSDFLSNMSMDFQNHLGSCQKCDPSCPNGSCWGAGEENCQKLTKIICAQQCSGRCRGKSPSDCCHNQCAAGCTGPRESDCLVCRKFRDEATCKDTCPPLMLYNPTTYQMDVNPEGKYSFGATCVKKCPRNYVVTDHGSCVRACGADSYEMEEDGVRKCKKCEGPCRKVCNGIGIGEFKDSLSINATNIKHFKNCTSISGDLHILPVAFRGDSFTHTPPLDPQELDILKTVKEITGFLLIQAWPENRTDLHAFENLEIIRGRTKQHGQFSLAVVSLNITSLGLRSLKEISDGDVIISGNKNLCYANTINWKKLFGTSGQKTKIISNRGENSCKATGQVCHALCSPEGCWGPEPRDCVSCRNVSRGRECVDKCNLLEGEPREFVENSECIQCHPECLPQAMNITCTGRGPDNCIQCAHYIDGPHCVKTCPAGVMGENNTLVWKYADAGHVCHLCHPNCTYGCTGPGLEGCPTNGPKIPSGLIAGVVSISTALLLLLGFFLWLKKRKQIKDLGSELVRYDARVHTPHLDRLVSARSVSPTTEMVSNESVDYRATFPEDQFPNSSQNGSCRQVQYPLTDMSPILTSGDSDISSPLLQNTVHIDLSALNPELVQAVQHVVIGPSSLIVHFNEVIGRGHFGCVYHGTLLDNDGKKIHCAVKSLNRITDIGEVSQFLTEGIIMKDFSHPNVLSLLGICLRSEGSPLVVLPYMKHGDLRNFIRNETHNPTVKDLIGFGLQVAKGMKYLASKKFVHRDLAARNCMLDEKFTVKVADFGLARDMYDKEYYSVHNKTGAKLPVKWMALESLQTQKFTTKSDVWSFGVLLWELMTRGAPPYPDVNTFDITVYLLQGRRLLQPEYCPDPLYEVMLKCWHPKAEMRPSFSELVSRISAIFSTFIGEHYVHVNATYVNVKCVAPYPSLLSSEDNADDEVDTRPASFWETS

| SMILES | Met Kinase % Inhibition (P.130) [%] | Met Kinase % Inhibition (P.130) (protocol P.130) |
| --- | --- | --- |
| CCOc1ccccc1C=C1C(=O)Nc2c(Br)cc(Br)c(C)c21 [10717/H02] | 44.5 |  |
| Cc1c(Br)cc(Br)c2c1C(=Cc1cccs1)C(=O)N2 [10717/H03] | 18.3 |  |
| Cc1c(Br)cc(Br)c2c1C(=Cc1cccn1C)C(=O)N2 [10717/H04] | 14.0 |  |
| COc1ccc(C=C2C(=O)Nc3c(Br)cc(Br)c(C)c32)cc1OC [10720/H04] | 21.3 |  |
| Cc1c(Br)cc(Br)c2c1C(=Cc1ccccc1O)C(=O)N2 [10720/H05] | 51.0 |  |
| Cc1c(Br)cc(Br)c2c1C(=Cc1ccccc1)C(=O)N2 [10720/H06] | 24.4 |  |
| CSc1ccc(C=C2C(=O)Nc3c(Br)cc(Br)c(C)c32)s1 [10720/H07] | 10.8 |  |
| Cc1cc(O)cc(O)c1C=C1C(=O)Nc2c(Br)cc(Br)c(C)c21 [10720/H08] | 40.0 |  |
| CCOc1cc(C=C2C(=O)Nc3c(Br)cc(Br)c(C)c32)ccc1O [10720/H09] | 49.0 |  |
| COc1ccc(O)c(C=C2C(=O)Nc3c(Br)cc(Br)c(C)c32)c1 [10720/H10] | 48.2 |  |
| Cc1c(Br)cc(Br)c2c1C(=Cc1ncc[nH]1)C(=O)N2 [10720/H11] | 28.0 |  |
| Cc1c(Br)cc(Br)c2c1C(=Cc1nc3ccccc3n1C)C(=O)N2 [10721/H02] | 39.7 |  |
| Cc1c(Br)cc(Br)c2c1C(=Cc1nn(C)cc1Cl)C(=O)N2 [10721/H03] | 21.3 |  |
| Cc1cc(C=C2C(=O)Nc3c(Br)cc(Br)c(C)c32)sc1C [10721/H04] | 72.9 |  |
| Cc1c(Br)cc(Br)c2c1C(=Cc1cc3c([nH]1)CCCC3)C(=O)N2 [10721/H05] | 33.6 |  |
| Cc1c(Br)cc(Br)c2c1C(=Cc1cc([N+](=O)[O-])cc(CCl)c1O)C(=O)N2 [10721/H06] | 90.3 |  |
| Cc1c(Br)cc(Br)c2c1C(=Cc1ccc(Cl)s1)C(=O)N2 [10721/H07] | 10.4 |  |
| Cc1cc(C)c(C=C2C(=O)Nc3c(Br)cc(Br)c(C)c32)[nH]1 [10721/H08] | 42.5 |  |
| Cc1c(Br)cc(Br)c2c1C(=Cc1ccc(O)c(C(C)(C)C)c1)C(=O)N2 [10721/H09] | 36.7 |  |
| Cc1c(Br)cc(Br)c2c1C(=Cc1cc(Br)c(O)c(C(C)(C)C)c1)C(=O)N2 [10721/H10] | 46.9 |  |
| Cc1c(Br)cc(Br)c2c1C(=Cc1cc(C(C)(C)C)c(O)c(C(C)(C)C)c1)C(=O)N2 [10721/H11] | 46.0 |  |
| Cc1c(Br)cc(Br)c2c1C(=Cc1cc([N+](=O)[O-])c(O)c(C(C)(C)C)c1)C(=O)N2 [10722/H02] | 37.8 |  |
| Cc1c(Br)cc(Br)c2c1C(=Cc1c(O)cc(O)cc1O)C(=O)N2 [10722/H03] | 100.5 |  |
| Cc1c(Br)cc(Br)c2c1C(=Cc1ccc([N+](=O)[O-])s1)C(=O)N2 [10722/H04] | 62.2 |  |

| SMILES | Met Kinase % Inhibition (P.130) [%] | Met Kinase % Inhibition (P.130) (protocol P.130) |
| --- | --- | --- |
| Cc1c(Br)cc(Br)c2c1C(=Cc1ccc(C(=O)O)cc1)C(=O)N2 [10722/H05] | 83.2 |  |
| Cc1c(Br)cc(Br)c2c1C(=Cc1ccc(F)cc1F)C(=O)N2 [10722/H06] | 70.3 |  |
| Cc1cc(C=C2C(=O)Nc3c(Br)cc(Br)c(C)c32)cc(C)c1O [10722/H07] | 51.0 |  |
| Cc1c(Br)cc(Br)c2c1C(=Cc1cc(Cl)c(O)c(C(C)(C)C)c1)C(=O)N2 [10722/H08] | 72.6 |  |
| Cc1c(Br)cc(Br)c2c1C(=Cc1csc([N+](=O)[O-])c1)C(=O)N2 [10722/H09] | 67.6 |  |
| CCCCN(CCCC)c1ccc(C=C2C(=O)Nc3c(Br)cc(Br)c(C)c32)cc1 [10722/H10] | 30.3 |  |
| Cc1c(Br)cc(Br)c2c1C(=Cc1ccc(C(F)(F)F)cc1)C(=O)N2 [10722/H11] | 66.1 |  |
| Cc1c(Br)cc(Br)c2c1C(=Cc1ccc(O)c(O)c1O)C(=O)N2 [10723/H02] | 100.8 |  |
| COc1cccc(C=C2C(=O)Nc3c(Br)cc(Br)c(C)c32)c1O [10723/H03] | 69.2 |  |
| Cc1c(Br)cc(Br)c2c1C(=Cc1cc(O)c(O)c(Br)c1)C(=O)N2 [10723/H04] | 95.6 |  |
| CC(=O)Oc1ccc(C=C2C(=O)Nc3c(Br)cc(Br)c(C)c32)cc1OC(C)=O [10723/H05] | 64.2 |  |
| Cc1cc(C=C2C(=O)Nc3c(Br)cc(Br)c(C)c32)ccc1O [10723/H06] | 44.9 |  |
| Cc1c(Br)cc(Br)c2c1C(=Cc1ccccc1Br)C(=O)N2 [10723/H07] | 44.9 |  |
| Cc1c(Br)cc(Br)c2c1C(=Cc1ccc(O)cc1O)C(=O)N2 [10723/H08] | 86.2 |  |
| COc1ccc(C=C2C(=O)Nc3c(Br)cc(Br)c(C)c32)c(O)c1 [10723/H09] | 62.1 |  |
| Cc1c(Br)cc(Br)c2c1C(=Cc1cccc(Br)c1)C(=O)N2 [10723/H10] | 46.4 |  |
| Cc1c(Br)cc(Br)c2c1C(=Cc1cc(C(C)(C)C)cc(C(C)(C)C)c1O)C(=O)N2 [10723/H11] | 76.2 |  |
| Cc1c(Br)cc(Br)c2c1C(=Cc1ccc(N(C)C)c3ccccc13)C(=O)N2 [10724/H02] | 51.9 |  |
| Cc1c(Br)cc(Br)c2c1C(=Cc1ccc(O)c([N+](=O)[O-])c1)C(=O)N2 [10724/H03] | 26.1 |  |
| Cc1c(Br)cc(Br)c2c1C(=Cc1ccc([N+](=O)[O-])c(O)c1)C(=O)N2 [10724/H04] | 69.3 |  |
| Cc1c(Br)cc(Br)c2c1C(=Cc1cc3c4c(c1O)CCCN4CCC3)C(=O)N2 [10724/H05] | 68.6 |  |
| Cc1c(Br)cc(Br)c2c1C(=Cc1cc(C(C)C)c(O)c(C(C)C)c1)C(=O)N2 [10724/H06] | 32.8 |  |
| Cc1c(Br)cc(Br)c2c1C(=Cc1cc3ccccc3o1)C(=O)N2 [10724/H07] | 8.6 |  |
| COc1cc(O)c(C=C2C(=O)Nc3c(Br)cc(Br)c(C)c32)c(OC)c1 [10724/H08] | 65.8 |  |

| SMILES | Met Kinase % Inhibition (P.130) [%] | Met Kinase % Inhibition (P.130) (protocol P.130) |
| --- | --- | --- |
| Cc1c(Br)cc(Br)c2c1C(=Cc1cccn1-c1ccc(Cl)cc1)C(=O)N2 [10724/H09] | 4.2 |  |
| CCc1ccc(C=C2C(=O)Nc3c(Br)cc(Br)c(C)c32)o1 [10724/H10] | 72.2 |  |
| Cc1c(Br)cc(Br)c2c1C(=Cc1sc3scc(C)c3c1C)C(=O)N2 [10724/H11] | 9.8 |  |
| Cc1c(Br)cc(Br)c2c1C(=Cc1sccc1Br)C(=O)N2 [10725/H02] | 15.8 |  |
| COc1ccc(Br)c(C=C2C(=O)Nc3c(Br)cc(Br)c(C)c32)c1O [10725/H03] | 58.3 |  |
| Cc1ccc(C=C2C(=O)Nc3c(Br)cc(Br)c(C)c32)o1 [10725/H04] | 47.1 |  |
| Cc1cc(C=C2C(=O)Nc3c(Br)cc(Br)c(C)c32)[nH]n1 [10725/H05] | 20.8 |  |
| COc1cc(C)cc(O)c1C=C1C(=O)Nc2c(Br)cc(Br)c(C)c21 [10725/H06] | 33.0 |  |
| Cc1c(Br)cc(Br)c2c1C(=Cc1ccc(N3CCN(C=O)CC3)cc1)C(=O)N2 [10725/H07] | 14.2 |  |
| Cc1c(Br)cc(Br)c2c1C(=Cc1ccc(N3CCOCC3)cc1)C(=O)N2 [10725/H08] | 5.7 |  |
| COC(=O)Cc1c(Cl)[nH]c(C=C2C(=O)Nc3c(Br)cc(Br)c(C)c32)c1C(=O)OC [10725/H09] | 41.6 |  |
| Cc1c(Br)cc(Br)c2c1C(=Cc1c(Br)cnn1-c1ccc(Cl)cc1)C(=O)N2 [10725/H10] | 21.8 |  |
| Cc1c(Br)cc(Br)c2c1C(=Cc1c[nH]cn1)C(=O)N2 [10725/H11] | 17.8 |  |
| Cc1c(Br)cc(Br)c2c1C(=Cc1ccccc1[N+](=O)[O-])C(=O)N2 [10726/H02] | 66.6 |  |
| CCOC(=O)c1[nH]c(C=C2C(=O)Nc3c(Br)cc(Br)c(C)c32)c(C(=O)OC)c1C [10726/H03] | 44.8 |  |
| Cc1cc(C=C2C(=O)Nc3c(Br)cc(Br)c(C)c32)cc(C(C)(C)C)c1O [10726/H04] | 77.6 |  |
| COc1cccc(C=C2C(=O)Nc3ccc(S(=O)(=O)N4CCOCC4)cc32)c1 [10736/F10] | 65.3 |  |
| O=C1Nc2ccc(S(=O)(=O)N3CCOCC3)cc2C1=Cc1ccccc1Cl [10736/F11] | 25.2 |  |
| O=C1Nc2ccc(CCCl)cc2C1=Cc1ccc(Cl)cc1 [10736/G02] | 48.3 |  |
| O=C1Nc2ccc(CCCl)cc2C1=Cc1ccccc1C(F)(F)F [10736/G03] | 0.6 |  |
| Cc1cccc(C=C2C(=O)Nc3ccc(CCCl)cc32)c1 [10736/G04] | −6.6 |  |
| Cc1ccc(C=C2C(=O)Nc3ccc(CCCl)cc32)cc1 [10736/G05] |  | 0.0% and 1.3% |
